Test results as given in article PMC6263113 (Journal of Enzyme Inhibition and Medicinal Chemistry, 2018).
“Also recorded” adds a separate entry of the source.

Legend:
[1] = target: T1, AChE (Rattus norvegicus, UniProt P37136); test: In vitro AChE activity in rat hippocampus homogenate; type: biochemical
T1 sequence (P37136 32-614): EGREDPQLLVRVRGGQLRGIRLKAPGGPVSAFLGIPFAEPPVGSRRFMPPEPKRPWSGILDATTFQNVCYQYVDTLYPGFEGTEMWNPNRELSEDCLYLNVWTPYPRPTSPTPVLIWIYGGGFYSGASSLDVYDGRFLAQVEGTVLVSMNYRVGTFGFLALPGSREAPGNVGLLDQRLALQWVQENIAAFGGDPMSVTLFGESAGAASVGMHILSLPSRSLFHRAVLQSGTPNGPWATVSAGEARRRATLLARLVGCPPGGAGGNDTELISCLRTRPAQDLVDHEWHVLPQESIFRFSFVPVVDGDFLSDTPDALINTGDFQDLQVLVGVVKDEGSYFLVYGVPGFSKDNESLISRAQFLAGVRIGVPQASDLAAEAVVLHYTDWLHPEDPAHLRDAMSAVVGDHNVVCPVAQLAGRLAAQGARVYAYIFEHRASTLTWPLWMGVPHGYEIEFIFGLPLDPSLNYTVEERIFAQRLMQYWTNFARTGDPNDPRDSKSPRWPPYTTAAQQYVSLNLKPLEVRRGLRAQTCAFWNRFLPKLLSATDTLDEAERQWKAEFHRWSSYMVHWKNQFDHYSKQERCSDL

[2] = target: T1, AChE; test: In vitro AChE activity in rat cerebral cortex homogenate; type: biochemical; details: read-out: inhibition of AChE activity
[3] = test system: MRC-5 (human fibroblast); test: Cytotoxicity in fibroblast culture by SRB test; type: cell-based; details: 24 h
[4] = read-out: inhibition of AChE activity

| SMILES | IC50 [1] [µM] | inhibition at 100 µM [1, 4] [%] | inhibition at 10 µM [2] [%] | cytotoxicity (cell proliferation vs DMSO control) ([3]; 100 µM) | inhibition at 50 µM [1, 4] [%] | cytotoxicity in human fibroblast cell (overall statement) [3] | cytotoxicity (cell proliferation vs DMSO control) ([3]; 50 µM (lowest concentration tested)) |
| --- | --- | --- | --- | --- | --- | --- | --- |
| O=C1c2ccccc2SC(c2ccc([N+](=O)[O-])cc2)N1CCN1CCOCC1 (stereo not drawn) [5Ad, 3-(2-morpholinoethyl)-2-(4-nitrophenyl)-2,3-dihydro-4H-benzo[e][1,3]thiazin-4-one] | 70.6 | 46.4 | – | – | – | – | – |
| CCCCC1Sc2ccccc2C(=O)N1CCCN1CCCCC1 (stereo not drawn) [5Ba, 2-butyl-3-(3-(piperidin-1-yl)propyl)-2,3-dihydro-4H-benzo[e][1,3]thiazin-4-one] | 73.3 | 46.2 | 27.1 | noncytotoxic | – | – | – |
| O=C1c2ccccc2SC(c2ccccc2)N1CCCN1CCCCC1 (stereo not drawn) [5Bb, 2-phenyl-3-(3-(piperidin-1-yl)propyl)-2,3-dihydro-4H-benzo[e][1,3]thiazin-4-one] | 39.8 | – | 47.2 | – | 50 | – | – |
| O=C1c2ccccc2SC(c2ccc([N+](=O)[O-])cc2)N1CCCN1CCCCC1 (stereo not drawn) [5Bd, 2-(4-nitrophenyl)-3-(3-(piperidin-1-yl)propyl)-2,3-dihydro-4H-benzo[e] [1,3]thiazin-4-one] | 39.8 | – | – | no cytotoxicity; also recorded: noncytotoxic | – | low cytotoxicity | – |
| O=C1c2ccccc2SC(c2ccc(F)cc2)N1CCCN1CCCCC1 (stereo not drawn) [5Bf, 2-(4-fluorophenyl)-3-(3-(piperidin-1-yl)propyl)-2,3-dihydro-4H-benzo[e][1,3]thiazin-4-one] | 61.7 | – | – | – | – | – | – |
| O=C1c2ccccc2SC(c2ccc([N+](=O)[O-])cc2)N1CCN1CCCCC1 (stereo not drawn) [5Cd, 2-(4-nitrophenyl)-3-(2-(piperidin-1-yl)ethyl)-2,3-dihydro-4H-benzo[e] [1,3]thiazin-4-one] | 119 | – | – | – | – | – | showed toxicity |
